Results reported in the OPERA property sets (Mansouri et al. 2018).

Settings: for log10 BCF / log10 biotransformation half-life (days): fish

N#CC1(O)CCCCC1
melting point: 35 °C

CCCC(=O)NN
melting point: 45.5 °C

CC(=O)Nc1ccc(OC(=O)c2ccccc2O)cc1
melting point: 187 °C

C=C[Si](C)(Cl)Cl
boiling point: 92.5 °C

NC(=O)C=Cc1ccccc1
melting point: 149 °C

CN(C)C(=O)Cl
boiling point: 167 °C | log10 vapour pressure (mmHg): 0.29 | melting point: -33 °C

ICCI
boiling point: 200 °C | melting point: 83 °C

C1CCCCCC1
boiling point: 118 °C | log10 vapour pressure (mmHg): 1.33 | melting point: -8 °C

CNC(=O)Oc1ccccc1OC(C)C
log10 Koc (L/kg): 1.67 | log10 vapour pressure (mmHg): -5.01 | melting point: 87 °C | ready biodegradability: readily biodegradable

CCOC(=O)C(Cl)Cl
boiling point: 155 °C | log10 vapour pressure (mmHg): 0.456

CC1C2Cc3ccc(O)cc3C1(C)CCN2CCc1ccccc1 (stereo not given)
melting point: 181 °C

CCCCCCNC(=O)c1ccc(O)c(O)c1
melting point: 140 °C

Cc1c(O)cccc1Cl
boiling point: 225 °C | melting point: 86 °C

O=C(O)c1cc(F)c(F)c(F)c1
melting point: 98 °C

C[C@H]1C[C@H]2[C@@H]3CCC4=CC(=O)C=C[C@]4(C)[C@@]3(F)[C@@H](O)C[C@]2(C)[C@@]1(O)C(=O)CCl
melting point: 196 °C

CCCI
boiling point: 103 °C | log10 vapour pressure (mmHg): 1.63 | melting point: -101 °C

COC(=O)C(C)N(C(=O)c1ccccc1)c1ccc(F)c(Cl)c1 (stereo not given)
melting point: 85 °C

C[C@]12C/C(=C/O)C(=O)C[C@@H]1CC[C@@H]1[C@@H]2CC[C@@]2(C)[C@H]1CC[C@]2(C)O
melting point: 179 °C

Cc1c(O)cccc1O
boiling point: 264 °C | melting point: 120 °C | ready biodegradability: not readily biodegradable

O=C=C=C=O
boiling point: 6.8 °C | melting point: -107 °C

CCOS(C)(=O)=O
boiling point: 214 °C | log10 vapour pressure (mmHg): -0.686

CC(O)C(C)O (stereo not given)
ready biodegradability: readily biodegradable

O/N=C\c1ccccc1
boiling point: 200 °C | melting point: 36.5 °C

CC(=O)Oc1ccc(C2(c3ccc(OC(C)=O)cc3)Oc3ccccc3NC2=O)cc1
melting point: 190 °C

FC(F)(Br)C(F)(F)C(F)(F)C(F)(F)C(F)(F)C(F)(F)C(F)(F)C(F)(F)Br
boiling point: 180 °C

CC(C)Nc1nc(Cl)nc(NC2CC2)n1
log10 vapour pressure (mmHg): -6.52 | melting point: 167 °C

CC(C)c1cccc(C(C)C)c1N
boiling point: 257 °C | melting point: -45 °C

CCc1ccc(CC)cc1
boiling point: 184 °C | log10 vapour pressure (mmHg): 0.0253 | melting point: -42.8 °C | ready biodegradability: not readily biodegradable | log10 BCF: 2.68 | log10 biotransformation half-life (days): -0.01

COc1ccc2c(c1)CCCN2
boiling point: 284 °C | melting point: 42.5 °C

O=C=Nc1ccc(N=C=O)cc1
boiling point: 260 °C | melting point: 97.5 °C

O=c1ccn([C@@H]2C[C@@H](O)[C@H](CO)O2)c(=O)[nH]1
melting point: 163 °C

COc1ccc(CN(CCN(C)C)c2ncccn2)cc1.Cl
melting point: 174 °C

NC(=O)Nc1cccc(Br)c1
log10 Koc (L/kg): 2.12

CCCCC1CCC(=O)O1 (stereo not given)
boiling point: 234 °C

NC=S
melting point: 26.5 °C

CCOC(=O)CN1CCN(C(=O)/C=C\c2cc(OC)c(OC)c(OC)c2)CC1
melting point: 96 °C

CC(=O)O[C@@]12CO[C@@H]1C[C@H](O)[C@@]1(C)C(=O)[C@H](O)C3=C(C)[C@@H](OC(=O)[C@H](O)[C@@H](NC(=O)OC(C)(C)C)c4ccccc4)C[C@@](O)([C@@H](OC(=O)c4ccccc4)[C@H]21)C3(C)C
melting point: 232 °C

NC(=O)c1nc(-c2ccccc2)n(-c2ccc(Cl)c(COCC(F)(F)C(F)(F)F)c2)n1
melting point: 146 °C

NCC1CCNCC1
boiling point: 200 °C | melting point: 25 °C

Cc1ccc(O)c(I)c1
melting point: 35 °C

CCCCCCCCOc1ccccc1
boiling point: 285 °C | melting point: 8 °C

ClC1C(Cl)C(Cl)C(Cl)C(Cl)C1Cl (stereo not given)
log10 biotransformation half-life (days): 1.49

CC(C)CC(C)Cl (stereo not given)
boiling point: 113 °C

ClC1=CCCCC1
boiling point: 142 °C

CN(C)c1ccc(N=O)cc1
melting point: 92.5 °C

CC(Br)C(=O)c1ccccc1 (stereo not given)
boiling point: 248 °C

C=C1C[C@@H]1C[C@H](N)C(=O)O
melting point: 282 °C

Cc1cccc([N+](=O)[O-])c1C
boiling point: 240 °C | log10 vapour pressure (mmHg): -0.445 | melting point: 15 °C | ready biodegradability: not readily biodegradable

O=C(O)c1cc(Br)cc(Br)c1O
melting point: 228 °C

CCc1ccc2c(c1)C(=O)c1ccccc1C2=O
melting point: 110 °C | ready biodegradability: not readily biodegradable | log10 BCF: 0.98

CCOCC
boiling point: 34.6 °C | log10 Henry constant (atm·m³/mol): -2.91 | log10 Koa: 2.19 | log10 vapour pressure (mmHg): 2.73 | melting point: -116 °C | ready biodegradability: not readily biodegradable | log10 BCF: 0.73 | log10 biotransformation half-life (days): -0.7

CC(C)=CC=C(C)C
boiling point: 134 °C | melting point: 14 °C | log10 BCF: 2.32 | log10 biotransformation half-life (days): 0.49

O=C1CCSc2ccccc21
melting point: 29 °C

O=C1C=Cc2cccc3cccc1c23
log10 vapour pressure (mmHg): -5.17 | melting point: 154 °C

COc1ccc(COC(=O)Cc2ccccc2)cc1
boiling point: 370 °C

CCNC1CCCCC1
boiling point: 164 °C

COS(=O)(=O)Cl
boiling point: 134 °C | melting point: -70 °C

Cc1c([N+](=O)[O-])cc(C(C)C)c(O)c1[N+](=O)[O-]
melting point: 55.5 °C

O=C(Cl)C(=O)Cl
boiling point: 63.5 °C | melting point: -16 °C

Cc1c(Cl)c(Cl)c(C)c(Cl)c1Cl
log10 BCF: 3.62 | log10 biotransformation half-life (days): 1.12

CN1C(=O)CCC1=O
boiling point: 234 °C | melting point: 71 °C

O=C(/C=C/C=C/c1ccc2c(c1)OCO2)N1CCCCC1
melting point: 132 °C

Clc1cc(Cl)c2cccc(Cl)c2c1Cl
log10 Koa: 8.41

Oc1ccc(C2CCCCC2)cc1
boiling point: 294 °C | melting point: 133 °C

Clc1ccc(Cn2cncn2)cc1Cl
melting point: 46.5 °C

CNC(=O)Oc1cccc(C(C)C)c1
melting point: 73 °C

CCC(Cl)(Cl)Cl
boiling point: 108 °C | log10 vapour pressure (mmHg): 1.5

O=C(Cl)C(Cl)Cl
boiling point: 108 °C | log10 vapour pressure (mmHg): 1.36

c1ccc2nnccc2c1
melting point: 38 °C

CCCCCCCCSC(=O)Oc1cc(Cl)nnc1-c1ccccc1
log10 vapour pressure (mmHg): -9.01 | melting point: 27 °C

O=S(=O)(O)c1ccc(-c2ccc(S(=O)(=O)O)cc2)cc1
melting point: 72.5 °C

CCCOC(=O)c1ccoc1
boiling point: 211 °C

Clc1ccc(C(Cl)(Cl)Cl)cc1Cl
boiling point: 283 °C | melting point: 25.8 °C

O=C1c2ccccc2-c2ccccc21
boiling point: 342 °C | melting point: 84 °C

Cc1ccc(Oc2ccc(C)cc2)cc1
boiling point: 285 °C | melting point: 51 °C

Cc1ccccc1NC(=N)Nc1ccccc1C
melting point: 179 °C

CCc1cc(CC)cc(CC)c1
boiling point: 216 °C | melting point: -66.5 °C

FC(F)(Cl)Br
boiling point: -3.7 °C | log10 vapour pressure (mmHg): 3.31 | melting point: -160 °C

Nc1ccc2c(c1)C(=O)c1ccccc1C2=O
log10 vapour pressure (mmHg): -10.3 | melting point: 304 °C | ready biodegradability: not readily biodegradable | log10 BCF: 1.51 | log10 biotransformation half-life (days): -1.06

Fc1c(F)c(F)c(F)c(F)c1F
boiling point: 80.2 °C | log10 vapour pressure (mmHg): 1.93

O=C(c1ccc(F)cc1)c1ccc(F)cc1
melting point: 104 °C

OCCO
boiling point: 197 °C | log10 Henry constant (atm·m³/mol): -7.22 | log10 vapour pressure (mmHg): -1.04 | ready biodegradability: readily biodegradable

ClC(Cl)(Br)Br
boiling point: 150 °C | melting point: 38 °C

C=C(C)[C@H](C)O
boiling point: 114 °C

CC1Cc2ccccc2CC1C (stereo not given)
melting point: -5 °C

CC(=O)c1ccc2ccccc2c1
boiling point: 302 °C | log10 Koc (L/kg): 2.93 | log10 vapour pressure (mmHg): -3.21 | melting point: 56 °C

CCNC(N)=O
melting point: 92.5 °C

Cc1ccc(N)c(S(=O)(=O)O)c1
ready biodegradability: not readily biodegradable | log10 BCF: 0.6

CC1=CC[C@@]23CC1C(C)(C)[C@@H]2CC[C@H]3C
melting point: 262 °C
